Experiments:
Format in all cases: in vivo, human
[1] = system: patients who either failed to ovulate or ovulated with an endometrial thickness <5 mm in response to CC; assay: Letrozole cycles vs CC cycles in patients with inadequate response to CC (Example 2)
Experimental: HCG 10,000 IU was given to trigger ovulation. CC was given in a dose of 50-100 mg on days 3-7 or 5-9.

[2] = system: PCOS and unexplained infertility undergoing IUI; assay: Letrozole for Ovulation Induction: Summary (Example 5)
Text: Patient Group: PCOS and unexplained infertility undergoing IUI.
Results: Pregnancy rate was higher with Letrozole VS CC in both kinds of regimen, ovulation rate was higher with Letrozole VS CC in PCOS patients (not reported for unexplained fertility), endometrial thickness was better with Letrozole.

[3] = system: infertile patients (3 with PCOS and 4 with unexplained infertility); assay: Letrozole alone in a single dose, ovarian stimulation and cycle monitoring for IUI (Example 3)
Experimental: The estradiol levels in 9 treatment cycles in 7 infertile patients (3 with PCOS and 4 with unexplained infertility) undergoing ovarian stimulation and cycle monitoring for IUI who received a single 20 mg dose of letrozole on day 3 of the cycle. Follicle development was monitored by transvaginal ultrasound and by serum levels of estradiol and LH.

[4] = mean, single 20 mg dose on day 3
[5] = mean, single 20 mg dose on day 3, listed as letrozole
[6] = single 20 mg dose on day 3, spread in brackets

With `CCN(CC)CCOc1ccc(C(=C(Cl)c2ccccc2)c2ccccc2)cc1.O=C(O)CC(O)(CC(=O)O)C(=O)O` [CC] the “Day of hCG administration, Mean” value ([1]; Mean) was 12.6, the “Endometrial Thickness (Cm.), Mean” value ([1]; Mean) was 0.5 Cm and the “Estradiol (pmol/L) on day of hCG administration, Mean” value ([1]; Mean) was 2145 pmol/L. The “Estradiol per mature follicle (pmol/L), Mean” value ([1]; Mean) was 1278 pmol/L, the “Follicles > 1.5 Cm on day of hCG administration, Mean” value ([1]; Mean) was 1.9 and the “LH on day of hCG administration (IU/L), Mean” value ([1]; Mean) was 16 IU/L. The “Number of Days from last letrozole tablet to hCG day, Mean” value ([1]; Mean) was 4.4, the “Day of hCG administration, Median” value ([1]; Median) was 12 and the “Endometrial Thickness (Cm.), Median” value ([1]; Median) was 0.4 Cm. The “Estradiol (pmol/L) on day of hCG administration, Median” value ([1]; Median) was 1668 pmol/L, the “Estradiol per mature follicle (pmol/L), Median” value ([1]; Median) was 1486 pmol/L and the “Follicles > 1.5 Cm on day of hCG administration, Median” value ([1]; Median) was 2. The “LH on day of hCG administration (IU/L), Median” value ([1]; Median) was 8 IU/L, the “Number of Days from last letrozole tablet to hCG day, Median” value ([1]; Median) was 4 and the “Day of hCG administration, Range” value ([1]; Range) was 11-16. The “Endometrial Thickness (Cm.), Range” value ([1]; Range) was 0.4-0.8 Cm, the “Estradiol (pmol/L) on day of hCG administration, Range” value ([1]; Range) was 362 to 5210 pmol/L and the “Estradiol per mature follicle (pmol/L), Range” value ([1]; Range) was 177 to 2404 pmol/L. The “Follicles > 1.5 Cm on day of hCG administration, Range” value ([1]; Range) was 1-5, the “LH on day of hCG administration (IU/L), Range” value ([1]; Range) was 3-66 IU/L and the “Number of Days from last letrozole tablet to hCG day, Range” value ([1]; Range) was 2-7.

With `N#Cc1ccc(C(c2ccc(C#N)cc2)n2cncn2)cc1` [Letrozole, letrozole] the ovulation rate ([2]; Letrozole VS CC in PCOS patients) was “higher”, the Pregnancy rate ([2]; Letrozole VS CC in both kinds of regimen (alone in PCOS; plus FSH in unexplained infertility)) was “higher” and the endometrial thickness ([2]; Letrozole vs CC) was “better”. The “Pregnancy was achieved (patients)” value ([3]; 7 patients, 9 treatment cycles, single 20 mg dose) was “one”, the “Estradiol on hCG day (pmol/L)” value [3, 4] was 831 (359) pmol/L and the “Estradiol/mature follicle (pmol/L)” value [3, 4] was 390 (74) pmol/L. The “Estradiol on hCG day” value [3, 5] was 831 pmol/L, the “Estradiol/mature follicle” value [3, 5] was 390 pmol/L and the “Endometrial thickness on hCG day (cm)” value [3, 6] was 0.9 (0.11) cm. For the same molecule, the “Follicles > 1.5 cm” value [3, 6] was 2.29 (1.3) and the “LH (IU/L)” value [3, 6] was 19.1 (12.7) IU/L.

Source: patent US7846957B2, “Aromatase inhibition to enhance assisted reproduction” (Ares Trading S.A., priority 2001, dated 2010)
